The values that follow are results of earlier work, collected in PMC11094875, “Cholecystokinin B receptor agonists alleviates anterograde amnesia in cholecystokinin-deficient and aged Alzheimer's disease mice” (Alzheimer's Research & Therapy, 2024).

For series [1] the following is noted: as stated in the MWM method for the dosing schedule; no reference given.
The conditions of series [2]: rat plasm ref 31.
For series [3] the following is noted: human plasm ref 31.

Read-outs that look alike come from different tables or passages of the source.

One may read the half-life as how long it takes for the measured level to halve. On to `CSCC[C@H](NC(=O)[C@@H](N)Cc1c[nH]c2ccccc12)C(=O)N[C@@H](CC(=O)O)C(=O)N[C@@H](Cc1ccccc1)C(N)=O` [CCK-4, CCK tetrapeptide], for which the half-life result is on record as “less than 5 min” in series [1], less than 1 min in series [2] and 13 min in series [3].
